This is an account of results in ChEMBL document CHEMBL1156984, “Synthesis and biological evaluation of piperazinyl heterocyclic antagonists of the gonadotropin releasing hormone (GnRH) receptor” (Bioorg Med Chem Lett, 2010).

In brackets after ≈: the same amount, converted by molar mass.

Data set [1] has as its target T1, Gonadotropin-releasing hormone receptor (Homo sapiens) (UniProt P30968).
T1 sequence (whole entry): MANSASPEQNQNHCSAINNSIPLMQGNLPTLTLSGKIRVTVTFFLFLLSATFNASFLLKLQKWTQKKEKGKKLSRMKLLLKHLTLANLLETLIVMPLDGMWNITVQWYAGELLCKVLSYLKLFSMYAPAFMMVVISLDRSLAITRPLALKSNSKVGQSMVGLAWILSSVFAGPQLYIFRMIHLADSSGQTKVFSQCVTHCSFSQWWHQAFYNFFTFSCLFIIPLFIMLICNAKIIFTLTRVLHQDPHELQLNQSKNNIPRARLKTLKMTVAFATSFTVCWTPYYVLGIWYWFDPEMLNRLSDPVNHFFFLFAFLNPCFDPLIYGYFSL
The data set is described as follows: Displacement of [125I]D-Trp6-GnRH from human recombinant GNRH receptor at 500 nM by scintillation counting. In general terms: In a radioligand displacement assay an active substance lowers the binding of a labelled ligand.

In data set [2] the target is T2, Gonadotropin-releasing hormone receptor (Homo sapiens, UniProt P30968).
T2 sequence (P30968 whole entry): T1 sequence (whole entry)
The data set is described as follows: Displacement of [125I]D-Trp6-GnRH from human recombinant GNRH receptor by scintillation counting.

In data set [3] the target is T2, Gonadotropin-releasing hormone receptor. The data set is described as follows: Antagonist activity at human recombinant GNRH receptor assessed as inhibition of D-Trp6-GNRH-induced IP accumulation after 1 hr by rapid filtration assay. In kind it is functional.
Data set [4] has as its target T3, Gonadotropin-releasing hormone receptor (Rattus norvegicus, UniProt P30969).
T3 sequence (P30969 whole entry): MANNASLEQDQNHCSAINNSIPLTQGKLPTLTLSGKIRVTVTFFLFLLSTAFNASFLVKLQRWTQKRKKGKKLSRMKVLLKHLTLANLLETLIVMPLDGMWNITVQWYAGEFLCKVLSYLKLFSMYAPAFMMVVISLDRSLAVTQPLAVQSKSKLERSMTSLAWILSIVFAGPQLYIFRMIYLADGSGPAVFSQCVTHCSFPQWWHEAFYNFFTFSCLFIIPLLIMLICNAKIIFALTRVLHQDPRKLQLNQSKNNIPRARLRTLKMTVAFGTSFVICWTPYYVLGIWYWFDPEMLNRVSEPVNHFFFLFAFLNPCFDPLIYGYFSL
The data set is described as follows: Antagonist activity at GNRH receptor in rat pituitary cells assessed as inhibition of D-Trp6-GnRH-induced LH accumulation after 3 hrs by RIA. In kind it is functional, cell-based, Pituitary gland cell.

Data set [5] deals with T3, Gonadotropin-releasing hormone receptor. The data set can be described thus: Displacement of [125I]D-Trp6-GnRH from rat recombinant GNRH receptor by scintillation counting.
Data set [6] in a line: AUC (0 to infinity) in orchidectomized Sprague-Dawley rat at 30 mg/kg, po. In kind it is ADME, organism-based. On the set-up: time infinity, dose 30 mg/kg, route oral. The settings on record: male, plasma.
Data set [7] can be described thus: Cmax in orchidectomized Sprague-Dawley rat at 1 mg/kg, iv. In kind it is ADME, organism-based. Further details: dose 1 mg/kg, route intravenous. The conditions noted are these: male, in vivo.
A short description of data set [8]: Cmax in orchidectomized Sprague-Dawley rat at 30 mg/kg, po. In kind it is ADME, organism-based. Further details: dose 30 mg/kg, route oral. The settings on record: male, in vivo.
The nature of data set [9]: Solubility at pH 7.4. In kind it is physicochemical. The conditions noted are these: buffer.
Data set [10] is described as follows: Permeability by PAMPA method. The class given is ADME. The settings on record: read-out: permeability.
A short description of data set [11]: AUC (0 to infinity) in orchidectomized Sprague-Dawley rat at 1 mg/kg, iv. The class given is ADME, organism-based. Further details: time infinity, dose 1 mg/kg, route intravenous. The settings on record: male, plasma.
Data set [12] is described as follows: Half life in orchidectomized Sprague-Dawley rat at 1 mg/kg, iv. The class given is ADME, organism-based. Further details: dose 1 mg/kg, route intravenous. The conditions noted are these: male, in vivo.
A short description of data set [13]: Half life in orchidectomized Sprague-Dawley rat at 30 mg/kg, po. In kind it is ADME, organism-based. Further details: dose 30 mg/kg, route oral. The conditions noted are these: male, in vivo.
A short description of data set [14]: AUC (0 to infinity) in orchidectomized Sprague-Dawley rat at 3 mg/kg, iv. In kind it is ADME, organism-based. Further details: time infinity, dose 3 mg/kg, route intravenous. The settings on record: male, plasma.
Data set [15] can be described thus: Oral bioavailability in orchidectomized Sprague-Dawley rat at 30 mg/kg. In kind it is ADME, organism-based. The settings on record: male, in vivo.
Data set [16] is described as follows: Cmax in orchidectomized Sprague-Dawley rat at 3 mg/kg, iv. On the set-up: dose 3 mg/kg, route intravenous. The settings on record: male, in vivo. In kind it is ADME, organism-based.
Data set [17] can be described thus: Clearance in orchidectomized Sprague-Dawley rat at 3 mg/kg, iv. The class given is ADME, organism-based. On the set-up: dose 3 mg/kg, route intravenous. The settings on record: male, in vivo.
Data set [18] can be described thus: Volume of distribution at steady state in orchidectomized Sprague-Dawley rat at 3 mg/kg, iv. In kind it is ADME, organism-based. Further details: dose 3 mg/kg, route intravenous. The settings on record: male, in vivo, read-out: Vdss.
The target in another data set is Cytochrome P450 3A4 (Homo sapiens, UniProt P08684). The data set is described as follows: Inhibition of CYP3A4. In kind it is ADME.
Data set [19] in a line: Half life in orchidectomized Sprague-Dawley rat at 3 mg/kg, iv. In kind it is ADME, organism-based. Further details: dose 3 mg/kg, route intravenous. The settings on record: male, in vivo.
For another data set, the target named is Cytochrome P450 2D6 (Homo sapiens, UniProt P10635). The data set can be described thus: Inhibition of CYP2D6. In kind it is ADME.
Data set [20] is described as follows: Tmax in orchidectomized Sprague-Dawley rat at 30 mg/kg, po. The class given is ADME, organism-based. On the set-up: dose 30 mg/kg, route oral. The settings on record: male, in vivo.
The nature of data set [21]: Half life in rat liver microsomes. The class given is ADME, Microsome. (In general: Liver microsomes are vesicles of endoplasmic reticulum, rich in cytochrome P450 enzymes.)
The target of the next data set is Cytochrome P450 2C9 (Homo sapiens, UniProt P11712). The data set can be described thus: Inhibition of CYP2C9. The class given is ADME.
Chain of Cytochrome P450 2C9 (P11712 whole entry): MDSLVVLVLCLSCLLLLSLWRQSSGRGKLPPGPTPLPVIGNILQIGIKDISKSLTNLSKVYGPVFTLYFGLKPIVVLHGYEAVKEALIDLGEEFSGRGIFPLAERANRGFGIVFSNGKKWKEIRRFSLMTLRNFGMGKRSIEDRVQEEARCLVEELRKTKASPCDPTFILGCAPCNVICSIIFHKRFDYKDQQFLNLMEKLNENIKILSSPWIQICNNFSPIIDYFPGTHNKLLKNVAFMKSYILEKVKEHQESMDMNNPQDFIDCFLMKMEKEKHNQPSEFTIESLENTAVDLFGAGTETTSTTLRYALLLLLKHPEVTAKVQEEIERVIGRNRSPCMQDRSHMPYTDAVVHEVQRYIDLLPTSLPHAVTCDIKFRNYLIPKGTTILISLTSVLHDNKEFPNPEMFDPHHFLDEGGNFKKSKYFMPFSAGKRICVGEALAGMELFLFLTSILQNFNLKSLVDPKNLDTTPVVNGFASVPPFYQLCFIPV

Chain of Cytochrome P450 3A4 (P08684 whole entry): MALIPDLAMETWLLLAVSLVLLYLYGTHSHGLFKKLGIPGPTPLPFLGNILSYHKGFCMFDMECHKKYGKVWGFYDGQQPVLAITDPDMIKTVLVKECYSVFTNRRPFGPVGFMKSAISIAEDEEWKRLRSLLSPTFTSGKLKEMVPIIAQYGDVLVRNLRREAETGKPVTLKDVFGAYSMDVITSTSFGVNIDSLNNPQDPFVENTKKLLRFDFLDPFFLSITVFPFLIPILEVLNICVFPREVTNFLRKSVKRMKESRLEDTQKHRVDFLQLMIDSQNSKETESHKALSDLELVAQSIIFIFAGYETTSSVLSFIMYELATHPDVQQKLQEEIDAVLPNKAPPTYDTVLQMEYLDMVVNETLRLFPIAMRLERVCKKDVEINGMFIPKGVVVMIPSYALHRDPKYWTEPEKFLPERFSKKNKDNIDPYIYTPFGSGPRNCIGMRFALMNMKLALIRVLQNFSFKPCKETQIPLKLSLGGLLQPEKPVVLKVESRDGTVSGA
Chain of Cytochrome P450 2D6 (P10635 whole entry): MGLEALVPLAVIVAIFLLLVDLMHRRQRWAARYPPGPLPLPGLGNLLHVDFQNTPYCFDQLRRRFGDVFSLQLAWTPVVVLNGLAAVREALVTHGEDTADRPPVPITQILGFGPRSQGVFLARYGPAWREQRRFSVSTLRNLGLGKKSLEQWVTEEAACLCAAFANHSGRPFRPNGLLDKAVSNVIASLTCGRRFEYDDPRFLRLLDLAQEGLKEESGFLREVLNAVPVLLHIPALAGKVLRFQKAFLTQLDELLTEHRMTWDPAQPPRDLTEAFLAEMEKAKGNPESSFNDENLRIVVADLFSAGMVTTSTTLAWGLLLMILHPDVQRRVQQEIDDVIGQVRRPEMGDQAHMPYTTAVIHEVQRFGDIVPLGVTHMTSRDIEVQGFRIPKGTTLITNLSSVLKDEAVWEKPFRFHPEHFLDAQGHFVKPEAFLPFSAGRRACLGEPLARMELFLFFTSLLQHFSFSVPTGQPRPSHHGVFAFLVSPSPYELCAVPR

One may read the inhibition as the share of the control response that was lost under treatment. In the case of `CCc1nc(CN2CCN(c3cccc4oc(-c5ccc(C(C)(C)C)cc5)nc34)CC2)c(C)[nH]1`, in data set [1], the inhibition is 61%.

Usually IC50 stands for the concentration that inhibits the measured activity by half. As for `CC(C)(C)c1ccc(-c2cn3cccc(N4CCN(Cc5ccc6nccnc6c5)CC4)c3n2)cc1`, the IC50 in data set [2] turned out to be 47 nM; in data set [3], 90 nM; in data set [4] it was 3400 nM; in [5] it was 81 nM.

Take `CCc1nc(CN2CCN(c3ccnc4[nH]c(-c5ccc(C(C)(C)C)cc5)nc34)CC2)c(C)[nH]1`: in data set [1], the inhibition was 32%.

Regarding `CCc1nc(CN2CCN(c3cccc4nc(-c5ccc(C(C)(C)C)cc5)oc34)CC2)c(C)[nH]1`, in data set [2], the IC50 is greater than 10000 nM.

Take `CC(C)(C)c1ccc(-c2cn3cccc(N4CCN(Cc5cnc6ccccc6n5)CC4)c3n2)cc1`: the half-maximal inhibitory concentration (IC50) came out at 44 nM in data set [2], 39 nM in data set [3], 1500 nM in [4] and 29 nM in [5].

A word on the AUC(0-inf): it is the area under the concentration-time curve extrapolated to infinity. Higher therefore signals high exposure. What is called Cmax is the highest concentration seen after dosing. By solubility is commonly meant the concentration that dissolves in the medium under given conditions. A low value points to a poorly soluble substance. What is called half-life is how long it takes for the measured level to halve. On to `CCn1cnc(CN2CCN(c3cccc4[nH]c(-c5ccc(C(C)(C)C)cc5)nc34)CC2)c1C`, for which the IC50 stood at 5.8 nM in data set [2], 15 nM in data set [3] and 200 nM in [4]. Also, the total exposure AUC(0-inf) came out at 3440 ng·h/mL in data set [6] and 124 ng·h/mL in [11]. In addition, the highest concentration (Cmax) in [7] was found to be 458 ng/mL; in [8] it was 533 ng/mL. This compound displayed a solubility in data set [9] of 3 µg/mL (≈ 6.57 µM). Moreover, the Papp in data set [10] is 2.7 ×10⁻⁶ cm/s. The half-life in [12] was 24 min; in data set [13] it was 132 min.

As for `CCc1nc(CN2CCN(c3cccc4nc(-c5ccc(C(C)(C)C)cc5)cn34)CC2)c(C)[nH]1`, the 50% inhibitory concentration (IC50) in [2] was greater than 10000 nM.

One may read the bioavailability as the share of a dose that reaches the circulation, judged against a reference dose that is usually intravenous. Lower therefore signals little systemic uptake. As usually defined, the clearance is the volume of plasma or blood freed of the substance per unit of time. What is called Tmax is the time at which the peak concentration occurs. On to `CCn1cnc(CN2CCN(c3cccn4cc(-c5ccc(C(C)(C)C)cc5)nc34)CC2)c1C`, for which the half-inhibitory concentration (IC50) came out at 6.7 nM in [2], 41 nM in [3], 420 nM in data set [4] and 12 nM in data set [5]. Also, the AUC(0-inf) in data set [14] was 685 ng·h/mL; in data set [6] it was 1950 ng·h/mL. Further, the Cmax in data set [8] amounted to 788 ng/mL; in data set [16], 1760 ng/mL. In addition, the bioavailability in data set [15] came out at 28%. In [17], the clearance is 75.1 mL/min/kg. The Vd in data set [18] came to 3.5 L/kg. Moreover, in data set [9], the solubility came out at 9 µg/mL (≈ 19.7 µM). Moreover, the Papp in data set [10] was found to be 1.1 ×10⁻⁶ cm/s. Also, the figures for the “inhibition (INH)” value on Cytochrome P450 3A4, against Cytochrome P450 2D6 and on Cytochrome P450 2C9 were 54%, 9% and 10%, respectively. In addition, the half-life in [19] is 84 min; in data set [21], 11 min; in data set [13] it was 66 min. For the same compound, the Tmax in data set [20] stood at 48 min.

Take `CCc1nc(C)c(CN2CCN(c3cccc4[nH]c(-c5ccc(C(C)(C)C)cc5)nc34)CC2)[nH]1`: the half-inhibitory concentration (IC50) in data set [2] is 10 nM; in data set [3], 18 nM; in [4], 160 nM; in data set [5], 34 nM. Further, the solubility in [9] was 20 µg/mL (≈ 43.8 µM).

For `CC(C)(C)c1ccc(-c2cn3cccc(N4CCN(Cc5c[nH]c(=O)[nH]c5=O)CC4)c3n2)cc1`, the IC50 came out at 4.3 nM in data set [2], 20 nM in data set [3], 4400 nM in data set [4] and 95 nM in data set [5].

Consider `CCc1nc(CN2CCN(c3cncc4[nH]c(-c5ccc(C(C)(C)C)cc5)nc34)CC2)c(C)[nH]1`, for which the values for the IC50 in data set [2] and in data set [5] were 58 nM and 290 nM, respectively.

In the case of `CCc1nc(CN2CCN(c3cccc4sc(-c5ccc(C(C)(C)C)cc5)nc34)CC2)c(C)[nH]1`, the inhibition in data set [1] came out at 70%.

Turning to `CC(C)(C)c1ccc(-c2nc3c(N4CCN(Cc5ccc6nccnc6c5)CC4)cccc3[nH]2)cc1`, the values for the IC50 in [4] and in [5] were 360 nM and 72 nM, respectively.

`CCn1cc(CN2CCN(c3cccn4cc(-c5ccc(C(C)(C)C)cc5)nc34)CC2)c(=O)[nH]c1=O`: the 50% inhibitory concentration (IC50) turned out to be 2.3 nM in [2], 5 nM in data set [3], 260 nM in data set [4] and 5.7 nM in [5]. Also, the solubility in [9] came out at 6 µg/mL (≈ 12.3 µM). Further, the Papp in [10] is 1.2 ×10⁻⁶ cm/s. The “inhibition (INH)” value worked out at 54% at Cytochrome P450 3A4, 0% at Cytochrome P450 2D6 and 0% against Cytochrome P450 2C9. The same compound returned a half-life in data set [21] of 6 min.

As to `CCc1nc(CN2CCN(c3cccc4nc(-c5ccc(C(C)(C)C)cc5)sc34)CC2)c(C)[nH]1`, in data set [2], the IC50 is greater than 10000 nM.

With `CCc1nc(CN2CCN(c3cccn4cc(-c5ccc(C(C)(C)C)cc5)nc34)CC2)c(C)[nH]1`, the half-maximal inhibitory concentration (IC50) came out at 9.8 nM in data set [2], 60 nM in data set [3], 920 nM in data set [4] and 37 nM in data set [5]. The compound further showed a solubility in data set [9] of 3 µg/mL (≈ 6.57 µM). Moreover, the Papp in data set [10] was 0.2 ×10⁻⁶ cm/s. Moreover, the figures for the “inhibition (INH)” value on Cytochrome P450 3A4, at Cytochrome P450 2D6 and against Cytochrome P450 2C9 were 78%, 8% and 6%, respectively. The half-life in data set [21] is 21 min.
